The target in assay [1] is T1, wild-type EGFR (Homo sapiens, UniProt P00533).
T1 construct: recombinant proteins of the kinase domain of wild-type EGFR; purchased Reaction Biology Corporation
In words: In vitro kinase assay, EGFR WT kinase domain. In kind it is biochemical. The following applies: up to 10 micromolar.

The target of assay [2] is T2, AXL (Homo sapiens, UniProt P30530).
T2 construct: expressed in transfected cells
T2 sequence (P30530 26-894): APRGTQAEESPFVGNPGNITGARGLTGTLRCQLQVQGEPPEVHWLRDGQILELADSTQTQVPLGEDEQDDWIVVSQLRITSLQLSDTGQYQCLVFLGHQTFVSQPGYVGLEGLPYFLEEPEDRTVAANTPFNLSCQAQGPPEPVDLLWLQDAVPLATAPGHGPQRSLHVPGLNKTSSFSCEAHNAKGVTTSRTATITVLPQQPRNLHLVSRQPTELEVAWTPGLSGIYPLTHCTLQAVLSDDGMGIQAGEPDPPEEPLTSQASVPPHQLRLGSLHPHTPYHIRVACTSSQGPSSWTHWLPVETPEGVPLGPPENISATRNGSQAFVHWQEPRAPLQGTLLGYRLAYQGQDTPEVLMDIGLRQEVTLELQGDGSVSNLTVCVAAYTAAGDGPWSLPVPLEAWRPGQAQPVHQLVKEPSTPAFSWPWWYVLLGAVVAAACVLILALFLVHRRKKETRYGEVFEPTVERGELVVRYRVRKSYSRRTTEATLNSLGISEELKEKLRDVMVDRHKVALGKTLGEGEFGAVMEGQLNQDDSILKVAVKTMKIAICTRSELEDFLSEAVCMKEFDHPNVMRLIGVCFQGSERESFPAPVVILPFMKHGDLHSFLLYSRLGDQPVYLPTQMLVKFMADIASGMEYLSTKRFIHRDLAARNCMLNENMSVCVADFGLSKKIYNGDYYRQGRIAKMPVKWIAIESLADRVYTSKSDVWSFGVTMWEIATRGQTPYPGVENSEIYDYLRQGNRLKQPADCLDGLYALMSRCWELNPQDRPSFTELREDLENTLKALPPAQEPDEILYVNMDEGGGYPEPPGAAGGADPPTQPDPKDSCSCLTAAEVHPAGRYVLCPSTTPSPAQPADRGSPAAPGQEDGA
In words: MaMTH-DS assay, AXL bait with Shc1 prey. The assay is classed as cell-based. The text has this:
To test MaMTH-DS sensitivity and its potential suitability for use in RTK drug screening, we selected several RTKs whose dysfunction is associated with cancer, and prepared stable MaMTH-DS ‘baits’ in our reporter cell lines. We then performed MaMTH-DS assays in the presence of transfected Shcl functional adapter protein ‘prey’ and small-molecule TKIs, including both control molecules and compounds known to specifically target the function of the corresponding RTKs. First, we examined the response of the RTK MET to the TKIs Crizotinib and Erlotinib using MaMTH-DS.
MaMTH assays. Cells stably expressing bait of interest (EGFR, MET, FGFR4, ALK, AXL) were seeded into 96-well TC-treated plates and grown at 37° C./5% CO2 overnight in DMEM/10% FBS/1% PS to ˜50-60% confluency. Cells were transfected with 50 ng/well of Nub-Shc1 ‘prey’ protein by calcium phosphate precipitation. Five hours after transfection, media was aspirated out and cells were treated with 100 uL of fresh media containing specific compound and 0.5 ug/ml of tetracyline to induce bait expression. After 24 hours, luciferase activity was measured by chemoluminescence.

Assay [3] deals with T3, FGFR4 (Homo sapiens, UniProt P22455).
T3 construct: expressed in transfected cells
As to the kind of experiment: MaMTH-DS assay, FGFR4 bait with Shc1 prey. In kind it is cell-based.

Assay [4] concerns the target T4, MET (Homo sapiens, UniProt P08581).
T4 construct: expressed in transfected cells
In words: MaMTH-DS assay, MET bait with Shc1 prey. The assay is classed as cell-based.

Assay [5] addresses T5, EGFR-L858R-T790M-C797S (Homo sapiens, UniProt P00533, C797S/L858R/T790M).
T5 construct: change the phosphorylation status of full-length EGFR proteins in the context of living cells; expressed in transfected cells
As to the kind of experiment: MaMTH / MaMTH-DS assay, EGFR-L858R-T790M-C797S bait with Shc1 prey. The following applies: retest in triplicate, MaMTH signal remaining (low = inhibition). The assay is classed as cell-based.

Assay [6] concerns the target T6, ALK (Homo sapiens, UniProt Q9UM73).
T6 construct: expressed in transfected cells
In words: MaMTH-DS assay, ALK bait with Shc1 prey. In kind it is cell-based.

For assay [7], the target named is EGFR ex19del/T790M/C797S (Homo sapiens, UniProt P00533, C797S/DEL746-750/T790M). In words: In vitro kinase assay, EGFR ex19del/T790M/C797S kinase domain. The assay is classed as biochemical.
Assay [8] concerns the target T7, EGFR-WT (Homo sapiens, UniProt P00533).
T7 construct: change the phosphorylation status of full-length EGFR proteins in the context of living cells; expressed in transfected cells
In words: MaMTH assay, EGFR-WT bait with Shc1 prey. In kind it is cell-based.

Entries after “also recorded” stand apart in the source; their conditions may differ.

T3 sequence (P22455 22-802): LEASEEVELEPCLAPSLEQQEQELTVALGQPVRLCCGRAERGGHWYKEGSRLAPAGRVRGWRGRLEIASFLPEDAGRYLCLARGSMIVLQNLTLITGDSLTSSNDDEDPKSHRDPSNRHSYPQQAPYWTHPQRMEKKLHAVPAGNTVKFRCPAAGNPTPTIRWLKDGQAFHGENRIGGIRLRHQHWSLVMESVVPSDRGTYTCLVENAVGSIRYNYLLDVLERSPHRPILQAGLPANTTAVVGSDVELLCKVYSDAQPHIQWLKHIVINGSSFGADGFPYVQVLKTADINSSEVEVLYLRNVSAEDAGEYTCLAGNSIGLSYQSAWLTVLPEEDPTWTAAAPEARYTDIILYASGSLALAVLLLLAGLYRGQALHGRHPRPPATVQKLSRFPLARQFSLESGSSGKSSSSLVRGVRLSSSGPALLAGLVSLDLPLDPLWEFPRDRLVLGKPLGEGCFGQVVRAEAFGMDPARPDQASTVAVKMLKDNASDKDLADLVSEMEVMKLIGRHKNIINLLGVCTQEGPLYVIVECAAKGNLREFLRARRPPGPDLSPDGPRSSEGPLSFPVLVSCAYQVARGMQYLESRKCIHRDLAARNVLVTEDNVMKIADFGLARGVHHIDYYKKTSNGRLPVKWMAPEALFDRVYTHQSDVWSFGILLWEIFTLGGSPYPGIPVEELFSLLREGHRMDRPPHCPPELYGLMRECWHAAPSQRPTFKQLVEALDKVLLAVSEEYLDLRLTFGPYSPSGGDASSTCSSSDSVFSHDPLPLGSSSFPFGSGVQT
T6 sequence (Q9UM73 19-1620): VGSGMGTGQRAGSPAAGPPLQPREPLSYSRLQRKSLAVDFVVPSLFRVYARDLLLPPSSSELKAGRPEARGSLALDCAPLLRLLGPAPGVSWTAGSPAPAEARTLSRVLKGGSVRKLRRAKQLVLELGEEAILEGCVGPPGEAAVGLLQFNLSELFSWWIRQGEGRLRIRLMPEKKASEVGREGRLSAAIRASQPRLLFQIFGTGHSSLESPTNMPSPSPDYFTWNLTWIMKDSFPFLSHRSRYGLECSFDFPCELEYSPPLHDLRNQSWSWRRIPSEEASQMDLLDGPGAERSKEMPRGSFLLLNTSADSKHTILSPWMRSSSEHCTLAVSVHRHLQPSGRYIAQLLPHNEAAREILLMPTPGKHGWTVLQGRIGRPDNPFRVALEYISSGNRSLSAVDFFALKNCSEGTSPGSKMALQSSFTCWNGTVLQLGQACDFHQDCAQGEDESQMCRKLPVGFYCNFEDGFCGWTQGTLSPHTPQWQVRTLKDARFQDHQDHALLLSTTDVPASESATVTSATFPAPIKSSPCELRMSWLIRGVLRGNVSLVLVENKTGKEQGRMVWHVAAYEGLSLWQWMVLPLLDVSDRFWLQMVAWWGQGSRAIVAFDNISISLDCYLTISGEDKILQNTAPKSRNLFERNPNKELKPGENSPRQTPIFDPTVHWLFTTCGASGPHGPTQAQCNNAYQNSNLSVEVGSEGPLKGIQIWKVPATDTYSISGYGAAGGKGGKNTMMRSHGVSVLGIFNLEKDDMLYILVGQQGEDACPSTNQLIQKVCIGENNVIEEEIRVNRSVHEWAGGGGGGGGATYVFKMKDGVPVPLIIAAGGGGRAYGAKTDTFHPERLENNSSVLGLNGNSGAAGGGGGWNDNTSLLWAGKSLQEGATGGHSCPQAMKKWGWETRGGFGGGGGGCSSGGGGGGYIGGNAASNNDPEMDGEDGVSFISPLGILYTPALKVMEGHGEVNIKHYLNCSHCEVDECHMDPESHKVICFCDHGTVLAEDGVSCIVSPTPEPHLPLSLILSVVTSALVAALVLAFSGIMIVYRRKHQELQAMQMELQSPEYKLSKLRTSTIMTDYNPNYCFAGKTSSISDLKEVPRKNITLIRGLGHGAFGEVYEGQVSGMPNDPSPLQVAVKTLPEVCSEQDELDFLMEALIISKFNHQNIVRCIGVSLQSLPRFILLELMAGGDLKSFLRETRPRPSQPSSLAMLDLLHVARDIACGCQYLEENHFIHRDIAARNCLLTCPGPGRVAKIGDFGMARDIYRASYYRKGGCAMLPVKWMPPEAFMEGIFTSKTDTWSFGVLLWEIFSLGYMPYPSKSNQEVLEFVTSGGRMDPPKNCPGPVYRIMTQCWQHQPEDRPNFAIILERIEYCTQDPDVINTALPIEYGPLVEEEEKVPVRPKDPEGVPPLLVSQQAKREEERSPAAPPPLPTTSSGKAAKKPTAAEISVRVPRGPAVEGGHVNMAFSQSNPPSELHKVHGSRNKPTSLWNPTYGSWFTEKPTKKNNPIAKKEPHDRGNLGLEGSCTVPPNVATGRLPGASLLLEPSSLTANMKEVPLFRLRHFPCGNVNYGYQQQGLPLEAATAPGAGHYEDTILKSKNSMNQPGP
T4 sequence (P08581 308-1390 limits assumed): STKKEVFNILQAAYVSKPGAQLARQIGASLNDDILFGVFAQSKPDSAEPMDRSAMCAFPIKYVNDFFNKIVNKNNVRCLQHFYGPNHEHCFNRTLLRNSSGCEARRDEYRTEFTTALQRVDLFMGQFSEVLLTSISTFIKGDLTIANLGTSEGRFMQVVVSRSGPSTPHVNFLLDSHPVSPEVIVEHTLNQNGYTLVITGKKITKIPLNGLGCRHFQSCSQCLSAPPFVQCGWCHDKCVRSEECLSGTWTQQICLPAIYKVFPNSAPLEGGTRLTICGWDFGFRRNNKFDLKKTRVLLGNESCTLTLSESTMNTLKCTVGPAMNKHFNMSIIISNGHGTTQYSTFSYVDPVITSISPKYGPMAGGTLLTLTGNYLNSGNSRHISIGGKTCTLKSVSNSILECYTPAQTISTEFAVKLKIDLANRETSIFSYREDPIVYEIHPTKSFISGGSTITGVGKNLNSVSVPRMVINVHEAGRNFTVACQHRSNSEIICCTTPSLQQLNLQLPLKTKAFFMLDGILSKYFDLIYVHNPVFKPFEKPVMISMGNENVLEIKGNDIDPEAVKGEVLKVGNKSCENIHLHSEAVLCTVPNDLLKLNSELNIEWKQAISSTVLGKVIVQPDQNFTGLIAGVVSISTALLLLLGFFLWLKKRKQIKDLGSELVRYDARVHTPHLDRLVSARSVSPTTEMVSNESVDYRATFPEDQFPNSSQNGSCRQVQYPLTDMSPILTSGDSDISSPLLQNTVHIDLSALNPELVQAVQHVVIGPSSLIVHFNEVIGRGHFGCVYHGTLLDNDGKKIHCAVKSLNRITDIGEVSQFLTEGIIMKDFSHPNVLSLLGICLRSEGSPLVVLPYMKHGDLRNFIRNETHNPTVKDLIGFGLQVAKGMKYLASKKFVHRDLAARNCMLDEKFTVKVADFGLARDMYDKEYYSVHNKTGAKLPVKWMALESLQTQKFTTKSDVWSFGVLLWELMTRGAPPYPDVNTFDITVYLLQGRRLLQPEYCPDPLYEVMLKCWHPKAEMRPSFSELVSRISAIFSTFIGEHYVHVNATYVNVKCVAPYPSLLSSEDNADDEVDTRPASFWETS
T4 sequence (P08581 25-307 partner limits assumed): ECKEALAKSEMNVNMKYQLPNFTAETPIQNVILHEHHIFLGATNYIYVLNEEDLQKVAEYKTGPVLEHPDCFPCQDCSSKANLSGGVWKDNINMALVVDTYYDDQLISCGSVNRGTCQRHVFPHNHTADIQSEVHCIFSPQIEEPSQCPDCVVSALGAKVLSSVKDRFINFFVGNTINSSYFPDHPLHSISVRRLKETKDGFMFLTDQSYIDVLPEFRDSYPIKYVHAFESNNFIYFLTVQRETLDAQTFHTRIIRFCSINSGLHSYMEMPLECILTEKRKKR

Regarding `CCN(CC)c1ccc2cc(-c3nc4ccccc4o3)c(=O)oc2c1` [Compound 5213777, 3-(1,3-benzoxazol-2-yl)-7-(diethylamino)-2H-chromen-2-one], the “effect on kinase activity” value in assay [1] is listed as “no kinase inhibitory activity”; in assay [7], “no kinase inhibitory activity; also recorded: does not inhibit the kinase activity”. Further, the “MaMTH-DS reporter activity” value in assay [2], in assay [3] and in assay [6] was “not” throughout. For the same compound, in assay [4], the “MaMTH-DS interaction with Shc1” value is “not”. The “Average Percent” value is 27.8% in assay [5] and 105.3% in assay [8] (EGFR-WT bait, Shc1 prey, retest in triplicate, MaMTH signal remaining (low = inhibition)). For the same compound, the “interaction / complex formation with Shc1 (MaMTH, words)” value in assay [8] (EGFR WT bait) is “not”.

These data come from patent US11123330B2, “Methods and compositions for inhibiting mutant EGFR signaling” (The Governing Council of the University of Toronto, priority 2017, dated 2021).
